Reference: patent US20040096894A1, “Crystal structures of P- selectin, P- and E-selectin complexes, and uses thereof” (priority 2000, published 2004)
Numbered stars: 1 amine (or outer) side, 2 acyl side, 3 side chain; on linkers, the order of the positions; unused ones are H or OH. Square brackets hold non-standard residues; d marks the D form. Peptide text beside a SMILES is read from it. X1 = CC(=O)N[C@H]1[C@H](OC[C@H]2O[C@H](O[C@H](C)[C@H](N[*:1])C(=O)[*:2])[C@H](NC(C)=O)[C@@H](O[C@@H]3O[C@H](CO)[C@H](O)[C@H](O[C@]4(C(=O)O)C[C@H](O)[C@@H](NC(C)=O)[C@H]([C@H](O)[C@H](O)CO)O4)[C@H]3O)[C@H]2O)O[C@H](CO)[C@@H](O[C@@H]2O[C@H](CO)[C@H](O)[C@H](O[C@]3(C(=O)O)C[C@H](O)[C@@H](NC(C)=O)[C@H]([C@H](O)[C@H](O)CO)O3)[C@H]2O)[C@@H]1O[C@@H]1O[C@@H](C)[C@@H](O)[C@@H](O)[C@@H]1O; sY = N[C@@H](Cc1ccc(OS(=O)(=O)O)cc1)C(=O)O; pGlu = O=C1CC[C@@H](C(=O)O)N1

Assays:
[1] = molecular target: T1, P-LE (lectin/EGF domains of P-selectin) (Homo sapiens, UniProt P16109); assay: BIAcore surface plasmon resonance: solution-phase P-LE binding to immobilized sPSGL and PSGL-1 19ek peptides; settings: immobilized ligand
T1 construct: The lectin-EGF (LE) domains (153 amino acids) of P-selectin (P-LE) and E-selectin (E-LE); IgG1 Fc (CH2-CH3 region) (C, cleaved yes); made in house; host or cells: CHO cells
T1 sequence (P16109 42-198): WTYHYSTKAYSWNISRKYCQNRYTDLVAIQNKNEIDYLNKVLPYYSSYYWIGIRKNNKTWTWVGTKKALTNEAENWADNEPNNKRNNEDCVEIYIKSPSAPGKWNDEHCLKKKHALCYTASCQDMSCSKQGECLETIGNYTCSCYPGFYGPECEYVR
Description: FIGS. 1C-1-1C-6: Binding affinity determinations of solution-phase P-LE reacted with immobilized sPSGL and purified 19ek peptides by BIAcore analysis. First row, left-to-right: sPSGL (FIGS. 1C-1), SGP-3 (FIGS. 1C-2) and SGP-2 (FIGS. 1C-3). Second row, left-to-right: SGP-1 (FIGS. 1C-4), GP-1 (FIGS. 1C-5) and SP-1 (FIGS. 1C-6). P-LE at the indicated concentrations was reacted with immobilized ligands (to determine the total binding signal) and against control […] containing no ligand (to determine non-specific binding). The equilibrium responses (Req) at each concentration of P-LE are shown. At each P-LE concentration tested, specific binding signals (squares) were determined by subtracting non-specific responses (triangles) from total binding signals (diamonds). KDs and standard deviations (shown) were determined by line-fitting of specific binding curves using BIAevaluation software (BIAcore) and are the products of three-to-ten separate experiments. KD determinations using line-fitting agreed well with values determined by linear regression analysis of Scatchard plots (not shown).
P-LE/19ek Peptide Binding Studies. […] Glycosylated P-LE and E-LE, quantitated by experimentally determined extinction coefficients (280 nm), were injected over the19ek peptide, sPSGL and control surfaces at 40 μL/min. […]

[2] = molecular target: T1, P-LE (lectin/EGF domains of P-selectin); assay: BIAcore: inhibition of P-LE binding to immobilized sPSGL and SGP-3 by co-injected solution-phase peptide; settings: P-LE at 800 nM; solution-phase inhibitor at 20 μM
Description: FIGS. 1B-1 and 1B-2: Representative BIAcore sensorgrams of solution-phase P-LE binding to immobilized PSGL-1 constructs. P-LE (at 800 nM concentration) was injected over sPSGL (FIGS. 1B-1) and SGP-3 (FIGS. 1B-2). […] P-LE binding to sPSGL and SGP-3 was inhibited by co-injection with solution-phase SGP-3 (dotted line) but not by a synthetic peptide containing no tyrosine sulfation or glycosylation (dashed line), both at 20 μM concentration. All curves reflect specific binding produced by subtracting non-specific binding from total binding.
P-LE/19ek Peptide Binding Studies. Surface plasmon resonance was performed on BIAcore 2000 and 3000 instruments at 25° C. using streptavidin-coated sensor chips (BIAcore) and HBS-P buffer (BIAcore; 10 mM HEPES (pH 7.4), 150 mM NaCl, and 0.005% polysorbate 20 (v/v)) adjusted to 1 mM each CaCl2 and MgCl2. The 19ek peptides and sPSGL, a fucosyltransferase-VII modified version of the entire dimeric extracellular domain of PSGL-1 (Croce et al., 1998), were biotinylated at Lys residues with Sulfo-NHS-LC-Biotin (Pierce). Following biotinylation, sPSGL was reacted with immobilized P-selectin in order to isolate functional material (Sako et al., 1995). […] Glycosylated P-LE and E-LE, quantitated by experimentally determined extinction coefficients (280 nm), were injected over the19ek peptide, sPSGL and control surfaces at 40 μL/min. […]

[3] = system: E-selectin relative P-selectin; settings: Poppe et al., 1997; cited from earlier work

## sPSGL: Fucosyltransferase-VII modified version of the entire dimeric extracellular domain of PSGL-1
[1]
  binding affinity of P-LE in words, compared with SGP-3 or the modified species: essentially identical affinity

## CSCC[C@H](NC(=O)[C@H](CCSC)NC(=O)[C@@H]1CCCN1C(=O)[C@H](CCCNC(=N)N)NC(=O)[C@@H]1CCCN1C(=O)[C@@H]1CCCN1C(=O)[C@H](CCC(=O)O)NC(=O)[C@@H](NC(=O)[C@H](CCC(=O)O)NC(=O)[C@@H]1CCCN1C(=O)[C@H](CC(C)C)NC(=O)[C@H](Cc1ccccc1)NC(=O)[C@H](CC(=O)O)NC(=O)[C@H](Cc1ccc(OS(=O)(=O)O)cc1)NC(=O)[C@H](CC(=O)O)NC(=O)[C@H](CC(C)C)NC(=O)[C@H](Cc1ccc(OS(=O)(=O)O)cc1)NC(=O)[C@H](CCC(=O)O)NC(=O)[C@H](Cc1ccc(OS(=O)(=O)O)cc1)NC(=O)[C@H](CCC(=O)O)NC(=O)[C@@H](NC(=O)[C@H](C)NC(=O)[C@@H]1CCC(=O)N1)[C@@H](C)O)[C@@H](C)O[C@H]1O[C@H](CO[C@@H]2O[C@H](CO)[C@@H](O[C@@H]3O[C@H](CO)[C@H](O)[C@H](O[C@]4(C(=O)O)C[C@H](O)[C@@H](NC(C)=O)[C@H]([C@H](O)[C@H](O)CO)O4)[C@H]3O)[C@H](O[C@@H]3O[C@@H](C)[C@@H](O)[C@@H](O)[C@@H]3O)[C@H]2NC(C)=O)[C@H](O)[C@H](O[C@@H]2O[C@H](CO)[C@H](O)[C@H](O[C@]3(C(=O)O)C[C@H](O)[C@@H](NC(C)=O)[C@H]([C@H](O)[C@H](O)CO)O3)[C@H]2O)[C@H]1NC(C)=O)C(=O)N[C@@H](CC(=O)O)C(=O)N[C@@H](CC(=O)O)C(=O)N[C@@H](CC(=O)O)C(=O)N[C@@H](CC(=O)O)C(=O)N[C@@H](CCCCN)C(=O)O [SGP-3] ([pGlu]ATE[sY]E[sY]LD[sY]DFLPE[X1]EPPRPMMDDDDK-OH; C-terminus assumed)
[2]
  inhibition of P-LE binding to immobilized sPSGL and SGP-3 by co-injection: inhibited

## sialyl Lewis^X (SLe^X, NeuNAc2,3Gal1,4[Fuc1,3] GlcNAc) tetrasaccharide
[3]
  higher SLe^X binding affinity for E-selectin relative P-selectin: approximately 10 fold
